From patent US20220162167A1, “SUBSTITUTED BICYCLIC AND TETRACYCLIC QUINONES AND USE THEREOF AS ANTI-CANCER AGENTS” (THE REGENTS OF THE UNIVERSITY OF MICHIGAN, priority 2019, published 2022)

Legend:
Type in all cases: cell-based
[1] = system: MALME-3M; experiment: NCI60 growth inhibition, MALME-3M; conditions: Melanoma
Experimental: (§1) Representative compounds were tested in 60 cell lines (NCI60) at the National Cancer Institute, Developmental Therapeutics Program.
(§2) Representative compounds were tested in a panel of 60 cancer cells (NCI 60) at the National Cancer Institute. Growth inhibition are shown in table 2, table 3, table 4, table 5, and FIG. 1, FIG. 2, FIG. 3, FIG. 4, FIG. 5.

[2] = system: HCT-116; experiment: NCI60 growth inhibition, HCT-116; conditions: Colon Cancer
Experimental: as §1, §2

[3] = system: UACC-257; experiment: NCI60 growth inhibition, UACC-257; conditions: Melanoma; also: test concentration or dose not given here
Experimental: as §1, §2

[4] = system: SF-268; experiment: NCI60 growth inhibition, SF-268; conditions: CNS Cancer; also: test concentration or dose not given here
Experimental: as §1, §2

[5] = system: LOX IMVI; experiment: NCI60 growth inhibition, LOX IMVI; conditions: Melanoma
Experimental: as §1, §2

[6] = system: DU-145; experiment: NCI60 growth inhibition, DU-145; conditions: Prostate Cancer
Experimental: as §1, §2

[7] = system: SNB-75; experiment: NCI60 growth inhibition, SNB-75; conditions: CNS Cancer; also: test concentration or dose not given here
Experimental: as §1, §2

[8] = system: M14; experiment: NCI60 growth inhibition, M14; conditions: Melanoma
Experimental: as §1, §2

[9] = system: SW-620; experiment: NCI60 growth inhibition, SW-620; conditions: Colon Cancer; also: test concentration or dose not given here
Experimental: as §1, §2

[10] = system: OVCAR-4; experiment: NCI60 growth inhibition, OVCAR-4; conditions: Ovarian Cancer; also: test concentration or dose not given here
Experimental: as §1, §2

[11] = system: 786-0; experiment: NCI60 growth inhibition, 786-0; conditions: Renal Cancer
Experimental: as §1, §2

[12] = system: SK-OV-3; experiment: NCI60 growth inhibition, SK-OV-3; conditions: Ovarian Cancer
Experimental: as §1, §2

[13] = system: SK-MEL-5; experiment: NCI60 growth inhibition, SK-MEL-5; conditions: Melanoma
Experimental: as §1, §2

[14] = system: SF-539; experiment: NCI60 growth inhibition, SF-539; conditions: CNS Cancer
Experimental: as §1, §2

[15] = system: T-47D; experiment: NCI60 growth inhibition, T-47D; conditions: Breast Cancer
Experimental: as §1, §2

[16] = system: K-562; experiment: NCI60 growth inhibition, K-562; conditions: Leukemia
Experimental: as §1, §2

[17] = system: ACHN; experiment: NCI60 growth inhibition, ACHN; conditions: Renal Cancer
Experimental: as §1, §2

[18] = system: SF-295; experiment: NCI60 growth inhibition, SF-295; conditions: CNS Cancer; also: test concentration or dose not given here
Experimental: as §1, §2

[19] = system: NCI/ADR-RES; experiment: NCI60 growth inhibition, NCI/ADR-RES; conditions: Ovarian Cancer
Experimental: as §1, §2

[20] = system: BT-549; experiment: NCI60 growth inhibition, BT-549; conditions: Breast Cancer
Experimental: as §1, §2

[21] = system: UO-31; experiment: NCI60 growth inhibition, UO-31; conditions: Renal Cancer
Experimental: as §1, §2

[22] = system: NCI-H226; experiment: NCI60 growth inhibition, NCI-H226; conditions: Non-Small Cell Lung Cancer; also: test concentration or dose not given here
Experimental: as §1, §2

[23] = system: HT29; experiment: NCI60 growth inhibition, HT29; conditions: Colon Cancer
Experimental: as §1, §2

[24] = system: CAKI-1; experiment: NCI60 growth inhibition, CAKI-1; conditions: Renal Cancer; also: test concentration or dose not given here
Experimental: as §1, §2

[25] = system: NCI-H23; experiment: NCI60 growth inhibition, NCI-H23; conditions: Non-Small Cell Lung Cancer
Experimental: as §1, §2

[26] = system: MCF7; experiment: NCI60 growth inhibition, MCF7; conditions: Breast Cancer
Experimental: as §1, §2

[27] = system: EKVX; experiment: NCI60 growth inhibition, EKVX; conditions: Non-Small Cell Lung Cancer
Experimental: as §1, §2

[28] = system: SNB-19; experiment: NCI60 growth inhibition, SNB-19; conditions: CNS Cancer; also: test concentration or dose not given here
Experimental: as §1, §2

[29] = system: NCI-H322M; experiment: NCI60 growth inhibition, NCI-H322M; conditions: Non-Small Cell Lung Cancer
Experimental: as §1, §2

O=C1c2cccnc2C(=O)c2nc3cc(N4CCN(C5CC5)CC4)ccc3nc21 [Compound 49, 9-(4-cyclopropylpiperazin-1-yl)pyrido[2,3-b]phenazine-5,12-dione]
Growth inhibition (% control) GIPRCNT [1]: −100 % control
Growth inhibition (% control) GIPRCNT [2]: 0.8509 % control
Growth inhibition (% control) GIPRCNT [3]: −84.4508 % control
Growth inhibition (% control) GIPRCNT [4]: 12.46 % control
Growth inhibition (% control) GIPRCNT [5]: −46.5487 % control
Growth inhibition (% control) GIPRCNT [6]: −75.9298 % control
Growth inhibition (% control) GIPRCNT [7]: −64.69 % control
Growth inhibition (% control) GIPRCNT [8]: −91.1652 % control
Growth inhibition (% control) GIPRCNT [9]: −37.75 % control
Growth inhibition (% control) GIPRCNT [10]: −87.768 % control
Growth inhibition (% control) GIPRCNT [11]: 28.12 % control
Growth inhibition (% control) GIPRCNT [12]: −78.6244 % control
Growth inhibition (% control) GIPRCNT [13]: −98.1218 % control
Growth inhibition (% control) GIPRCNT [14]: −99.37 % control
Growth inhibition (% control) GIPRCNT [15]: 22.46 % control
Growth inhibition (% control) GIPRCNT [16]: 0.8659 % control
Growth inhibition (% control) GIPRCNT [17]: −35.0589 % control
Growth inhibition (% control) GIPRCNT [18]: −88.89 % control
Growth inhibition (% control) GIPRCNT [19]: 20.15 % control
Growth inhibition (% control) GIPRCNT [20]: −93.6913 % control
Growth inhibition (% control) GIPRCNT [21]: −99.9594 % control
Growth inhibition (% control) GIPRCNT [22]: −49.1 % control
Growth inhibition (% control) GIPRCNT [23]: −21.31 % control
Growth inhibition (% control) GIPRCNT [24]: −5.268 % control
Growth inhibition (% control) GIPRCNT [25]: −56.52 % control
Growth inhibition (% control) GIPRCNT [26]: −56.1231 % control
Growth inhibition (% control) GIPRCNT [27]: 27.37 % control
Growth inhibition (% control) GIPRCNT [28]: −81.52 % control
Growth inhibition (% control) GIPRCNT [29]: −96.67 % control
